Columns and labels:
ACHN = test: Colony formation assay; format: cell-based, human; conditions: 6–11 days, Figure 3D
Experimental: (§1) The indicated concentrations TH5487 were spotted in 6-well plates using a Tecan D300e digital dispenser. 200–500 cells/well H460, ACHN, Ogg1^−/− mouse embryonic fibroblasts and MRC5 cells were then seeded at 200–500 cells/well and incubated for 7–11 days. Colonies exceeding 50 cells were fixed, stained and enumerated as above.
(§2) Figure 3. The OGG1 inhibitor TH5487 is selectively toxic to oncogene-expressing cells and cancer cell lines. (A) Close-up view of ligand TH5487 (green) binding to human OGG1. Important residues in the binding site are marked, hydrogen bond interactions are shown in black dashed line, water (red sphere)-mediated interactions in grey dashed line. (B) Comparison between the binding of ligand TH5487 (green) to human OGG1 (gray) with the structure of TH5675 (pink) bound to mouse OGG1 (yellow, PDB 6G3Y). (C) Viability of BJ-Tert and BJ-Ras cells exposed to the indicated concentrations TH5487 for five days. Data are average ±SD of four technical replicates from two independent experiments. (D) Clonogenic survival of cell lines exposed to TH5487. The cancer cell lines ACHN and H460, and the non-transformed cell lines MRC5 and Ogg1^−/− mouse embryonic fibroblasts (MEF) were incubated for 6–11 days in the presence of the indicated concentrations TH5487, followed by colony enumeration. Data are average ±SD values of four technical replicates, representative of three independent experiments. (E) TH5487 selectively decreases viability of cancer cell lines. EC50-values of 34 cancer (red) and 7 non-transformed cell lines (blue). Cells were exposed to a dilution series of TH5487 for five days followed by a viability assessment using resazurin. All cell lines were tested in two to ten independent experiments. Each point represents the EC50-value from one experiment (average of two or three technical replicates). (F) Comparative analysis of EC50 values for TH5487 in cancer- and non-transformed cell lines, and CD34+ hematopoietic stem cells, CD34- fraction from cord blood or PBMCs from healthy donor blood. […]

MRC5 = test: Colony formation assay; format: cell-based, human; conditions: MRC5, up to 20 μM
Experimental: as §1, §2

H460 = test: Colony formation assay; format: cell-based, human; conditions: H460, 6–11 days, Figure 3D
Experimental: as §1, §2

[1] = set-up: method as in PMID 30442810; conditions: cited from earlier work
[2] = tested on: primary blood cells (CD34+ cells, CD34- fraction from cord blood, PBMCs); test: Resazurin viability of primary blood cells; format: cell-based, human
Experimental: Cells were seeded in 96- or 384-well plates and incubated for 3 days for combination experiments or 5 days for single-drug exposure experiments. Resazurin (R7017, SigmaAldrich) was added to a final concentration of 0.01 mg/ml resazurin and fluorescence was measured at ex530/em590 after incubation for 2, 4 or 6 h. Curves were fitted using XLfit software (IDBS) or Prism 8.0 (Graphpad Software), and EC50 values were determined.
Peripheral blood mononuclear Cells (PBMC) were isolated from peripheral whole blood from controls using Histopaque®-1077 (Sigma-Aldrich, San Luis, MO, USA) following the manufacturer's instructions. Briefly, peripheral blood was collected in heparin and diluted with equal amount of PBS. Next, blood was centrifuged with Histopaque®-1077 at 400 × g for 30 min at room temperature and the PBMC layer was recovered. All steps were processed within 4 h after blood extraction.
Isolation of total CD34+ cells was performed from umbilical cord blood samples (CB) from healthy donors distributed from Centro de Transfusión de la Comunidad de Madrid. All samples were collected under written consent and institutional review board agreement. CD34+ cells was obtained from mononuclear cells were separated by fractionation in Ficoll-hypaque according to manufacturer's recommendations (GE Healthcare). […]

**Q.** With `O=C(Nc1ccc(I)cc1)N1CCC(n2c(=O)[nH]c3c(Br)cccc32)CC1` [TH5487] as the molecule, how does the Clonogenic potential (ACHN) read?
**A.** concentration-dependent loss of clonogenic potential

**Q.** What about the Clonogenic potential (MRC5) of the same molecule?
**A.** unaffected

**Q.** And the Clonogenic potential (H460)?
**A.** concentration-dependent loss of clonogenic potential

**Q.** What about the “Fraction associated with plasma proteins” value [1] of the same molecule?
**A.** more than 99%

**Q.** And the “Tolerance by hematopoietic primary cells” value ([2]; CD34+ cells, resting and activated CD34- cells from umbilical cord blood, healthy donors)?
**A.** well tolerated

**Q.** What about the EC50 ([2]; primary blood cells from healthy donors, activated or not, read-out: EC50, average over primary blood cells) of the same molecule?
**A.** 35.1 ± 20 µM
